{"source": "paper PMC11722135", "about": "“Structure- and Ligand-Based Virtual Screening for Identification of Novel TRPV4 Antagonists” (Molecules, 2024)", "key": {"TRPV4": {"tested_on": "TRPV4", "set-up": "method as in doi:10.1101/2020.10.13.334797", "conditions": "read-out: EC50 (TRPV4 agonist); cited from earlier work"}, "human TRPV4 [1]": {"target": "T1, human TRPV4 (Homo sapiens, UniProt Q9HBA0)", "T1 construct": "host or cells: HEK-293 cells (ATCC), transient transfection", "T1 sequence (Q9HBA0 whole entry)": "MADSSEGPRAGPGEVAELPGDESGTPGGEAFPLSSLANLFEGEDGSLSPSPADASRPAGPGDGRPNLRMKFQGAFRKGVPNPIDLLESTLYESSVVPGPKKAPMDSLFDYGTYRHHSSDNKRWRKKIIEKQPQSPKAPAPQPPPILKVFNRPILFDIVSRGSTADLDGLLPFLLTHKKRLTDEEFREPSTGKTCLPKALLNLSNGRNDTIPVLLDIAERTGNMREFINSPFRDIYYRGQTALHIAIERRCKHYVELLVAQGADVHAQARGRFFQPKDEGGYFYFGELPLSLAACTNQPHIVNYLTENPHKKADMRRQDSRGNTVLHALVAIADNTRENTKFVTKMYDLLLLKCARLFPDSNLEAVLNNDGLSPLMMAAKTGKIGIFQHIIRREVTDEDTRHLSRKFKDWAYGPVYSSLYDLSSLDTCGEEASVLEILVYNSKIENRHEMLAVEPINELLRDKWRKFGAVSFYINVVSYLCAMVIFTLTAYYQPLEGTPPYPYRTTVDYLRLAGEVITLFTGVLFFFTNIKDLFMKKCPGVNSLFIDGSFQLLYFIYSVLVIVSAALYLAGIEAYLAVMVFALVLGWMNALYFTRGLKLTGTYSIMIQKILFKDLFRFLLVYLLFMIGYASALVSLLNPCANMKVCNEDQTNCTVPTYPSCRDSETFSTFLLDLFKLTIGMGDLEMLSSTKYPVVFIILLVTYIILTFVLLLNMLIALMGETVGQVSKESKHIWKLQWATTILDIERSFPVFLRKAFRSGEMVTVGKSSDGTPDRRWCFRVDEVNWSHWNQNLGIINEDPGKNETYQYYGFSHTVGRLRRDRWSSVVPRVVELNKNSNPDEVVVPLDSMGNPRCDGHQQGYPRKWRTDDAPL", "assay": "FLIPRtetra calcium assay, second addition (antagonism of 500 nM GSK1016790A)", "format": "cell-based", "conditions": "for Inhibitory effect / activity on hTRPV4 in vitro: natural stilbenoids, 0.05–37.5 µM concentration series; for IC50: HEK-293 cells transiently transfected with human TRPV4, 500 nM GSK1016790A, 37 °C, read-out: IC50 (inhibition of response evoked by GSK1016790A)", "description": "(§1) The TRPV4 pharmacology of the hit compounds (Enamine) and the natural stilbenoids (purity > 95%, extracted at the Laboratory of Organic Chemistry at Åbo Akademi University) was studied with the fluorometric imaging plate reader FLIPR^tetra (Molecular Devices, San Jose, CA, USA) using a dual addition protocol, in which a compound’s agonism is initially measured and then, subsequently, a reference agonist is added to assess the compound’s possible antagonism. The studies were conducted in a 96-well plate format using HEK-293 cells (ATCC) that were transiently transfected with the human TRPV4 plasmid (Origene, Rockville, MD, USA, cat. SC309684). HEK cells were used as they are easy to transfect, and TRPV4 overexpressing cells provide a robust system to study TRPV4-mediated calcium responses with a wide signal window. In the experiments, the cells were loaded with a Calcium 4 Assay reagent (Molecular Devices) to enable intracellular calcium measurements. The study protocol was initiated by dispensing a concentration series (0.05–37.5 µM) of the test compounds on cells by FLIPR^tetra, and the agonism was recorded for 10 min followed by the second addition, 500 nM of the known TRPV4 agonist GSK1016790A (Sigma-Aldrich, St. Louis, […], USA, cat. G0798). The antagonism of the test compounds was measured for 2 min. All the experiments were performed at 37 °C. The excitation and emission were measured at wavelengths of 470–495 nm and 515–575 nm, respectively.\n(§2) In compound agonism and antagonism analysis, the fluorescence values were normalized by subtracting the baseline value from the maximum value of the first 10 min and of the last 2 min measured for each well, respectively. EC50 and IC50 values were determined from dose–response curves using a nonlinear regression curve fit by Prism (version 9.1.0). Dose–response curves were constructed from a mean of 3 separate wells at each compound concentration."}, "human TRPV4 [2]": {"target": "T1, human TRPV4", "assay": "FLIPRtetra calcium assay, first addition (agonism)", "format": "cell-based", "description": "as §1, §2"}}, "note": "Entries after “also recorded” stand apart in the source; their conditions may differ.", "data": [{"compound": "CCCCCCCCCC(=O)O[C@@H]1[C@@H](C)[C@@]2(O)[C@@H](C=C(CO)C[C@@]3(O)C(=O)C(C)=C[C@@H]23)[C@@H]2C(C)(C)[C@]12OC(=O)CCCCCCCCC", "note": "[4α-PDD, 4α-phorbol 12,13-didecanoate]", "values": [{"measurement": "EC50", "setting": "TRPV4", "result": 0.2, "unit": "µM"}]}, {"compound": "OC[C@H]1O[C@@H](Oc2cc(O)cc(/C=C/c3ccc(O)c(O)c3)c2)[C@H](O)[C@@H](O)[C@@H]1O", "note": "[Astringin, astringin]", "values": [{"measurement": "Inhibitory effect / activity on hTRPV4 in vitro", "setting": "human TRPV4 [1]", "result": "inactive"}]}, {"compound": "CC(C)C[C@H](NC(=O)c1cc2ccccc2s1)C(=O)N1CCN(C(=O)[C@H](CO)NS(=O)(=O)c2ccc(Cl)cc2Cl)CC1", "note": "[GSK1016790A]", "values": [{"measurement": "EC50", "setting": "TRPV4", "result": 0.002, "unit": "µM"}]}, {"compound": "COc1cc(/C=C/c2cc(O)cc(O[C@@H]3O[C@H](CO)[C@@H](O)[C@H](O)[C@H]3O)c2)ccc1O", "note": "[Isorhapontin, isorhapontin]", "values": [{"measurement": "Inhibitory effect / activity on hTRPV4 in vitro", "setting": "human TRPV4 [1]", "result": "inactive"}]}, {"compound": "O=C(CC(NC(=O)c1ccccc1Cl)c1ccccc1)Nc1ccc(N2CCCC2)nc1", "note": "(stereo not drawn) [Z221487176]", "values": [{"measurement": "IC50", "setting": "human TRPV4 [1]", "result": "> 30", "unit": "µM"}]}, {"compound": "O=C(CC1C(=O)Nc2ccccc2N1C(=O)/C=C/c1ccccc1)Nc1ccc(F)cc1", "note": "(stereo not drawn) [Z1213735368]", "values": [{"measurement": "Agonistic activity on the channel", "setting": "human TRPV4 [2]; 10 µM", "result": "without any agonistic activity"}, {"measurement": "Increase in the fluorescence signal / [Ca2+] (agonism)", "setting": "human TRPV4 [2]; high concentration (30 µM)", "result": "evoked a slow increase in the fluorescence signal; also recorded: gradually raised [Ca^2+] levels"}, {"measurement": "Inhibition of the response evoked by GSK1016790A", "setting": "human TRPV4 [1]; 10 µM, 500 nM GSK1016790A", "result": "inhibited the response evoked by GSK1016790A; also recorded: inhibited the response induced by GSK1016790A"}, {"measurement": "Inhibitory effect on hTRPV4 / reversal of the effect of GSK1016790A", "setting": "human TRPV4 [1]; 30 µM (high concentration), 500 nM GSK1016790A", "result": "reverse the effect of GSK1016790A"}, {"measurement": "IC50", "setting": "human TRPV4 [1]", "result": 8, "unit": "µM"}]}, {"compound": "CN1C(=O)c2ccc(NCc3nc(-c4c(F)cccc4F)cs3)cc2C1=O", "note": "[Z1728742868]", "values": [{"measurement": "EC50", "setting": "human TRPV4 [2]; HEK-293 cells transiently transfected with human TRPV4, 37 °C, read-out: EC50 (increase in intracellular calcium)", "result": 14, "unit": "µM"}, {"measurement": "Inhibition of the effect of GSK1016790A", "setting": "human TRPV4 [1]; 37.5 µM (highest test concentration), 500 nM GSK1016790A", "result": "inhibited the effect of GSK1016790A; also recorded: effectively inhibited the response"}]}]}
